Experimental data taken from US9340493B2, “Hydroxamic acid derivatives useful as antibacterial agents” (Pfizer Inc., priority 2008, dated 2016).
Converted amounts (≈) assume the structure as drawn.

Tests used:
[1] = biological target: T1, Pseudomonas aeruginosa LpxC enzyme (Pseudomonas aeruginosa, UniProt P47205); experiment: IC50 assay, LpxC enzyme from P. aeruginosa; assay type: biochemical; conditions: 0.5 nM enzyme, 25° C., pH 8.0, 20 min; ** = average of 2-8 assays
T1 construct: made in house; host or cells: E. coli
T1 sequence (P47205 1-303): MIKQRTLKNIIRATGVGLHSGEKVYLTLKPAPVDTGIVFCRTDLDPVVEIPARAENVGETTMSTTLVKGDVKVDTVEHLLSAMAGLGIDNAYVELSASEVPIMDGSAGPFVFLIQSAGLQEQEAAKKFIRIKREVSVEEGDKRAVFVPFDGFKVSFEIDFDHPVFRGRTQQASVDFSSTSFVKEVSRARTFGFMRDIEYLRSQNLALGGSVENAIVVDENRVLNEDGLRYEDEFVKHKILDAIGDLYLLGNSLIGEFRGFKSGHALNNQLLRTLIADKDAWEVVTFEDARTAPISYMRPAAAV
In short: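 P. aeruginosa LpxC (0.5 nM, expressed in E. coli) reacted with 0.5 uM ³H-acetyl-labelled UDP-3-O-(R-3-hydroxydecanoyl)-GlcNAc in 50 mM sodium phosphate pH 8.0 with 1 mg/ml BSA at 25 °C for 20 min. Charcoal stopped the reaction, and filtrate radioactivity was counted by scintillation after no-enzyme background subtraction.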

P. aeruginosa PAO280 = experiment: MIC determination, P. aeruginosa PAO280; assay type: cell-based; conditions: Pseudomonas aeruginosa, PAO280, read-out: MIC (ug/mL) P. aeruginosa PAO280
In short: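 Broth dilution MIC per CLSI M7-A7/M100-S18 guidelines. Strain PAO280 lacks efflux pumps MexAB-oprM, MexXY and MexZ.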

P. aeruginosa UI-18 = experiment: MIC determination, P. aeruginosa UI-18; assay type: cell-based; conditions: Pseudomonas aeruginosa, UI18; wild-type; * = arithmetic mean of 2-6 MIC determinations; read-out: MIC (ug/mL) P. aeruginosa UI-18
In short: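 MIC by broth dilution following CLSI M7-A7 and M100-S18 guidelines, tested against wild-type P. aeruginosa UI-18.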

[2] = system: Acinetobacter baumanii/haemolyticus; experiment: MIC determination, A. baumanii/haemolyticus; assay type: cell-based; conditions: Acinetobacter baumannii; multidrug-resistant clinical isolate; * = arithmetic mean of 2-6 MIC determinations; read-out: MIC (ug/mL) A. baumanii/haemolyticus
In short: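 MICs were determined by CLSI broth dilution (M7-A7, M100-S18) against a multidrug-resistant clinical isolate of Acinetobacter baumanii/haemolyticus.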

Enterobacter aerogenes = experiment: MIC determination, E. aerogenes; assay type: cell-based; conditions: Klebsiella aerogenes; quinolone-resistant, ESBL-expressing clinical isolate; * = arithmetic mean of 2-6 MIC determinations; read-out: MIC (ug/mL) E. aerogenes
In short: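 Clinical E. aerogenes isolate, quinolone-resistant and ESBL-expressing. MIC measured in vitro by dilution testing according to CLSI guidelines (M7-A7, M100-S18).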

Escherichia coli EC-1 = experiment: MIC determination, E. coli EC-1; assay type: cell-based; conditions: EC1, EC-1: VOGEL, * = arithmetic mean of 2-6 MIC determinations, read-out: MIC (ug/mL) E. coli EC-1
In short: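 Minimum inhibitory concentration against Escherichia coli EC-1 was determined in vitro by dilution susceptibility testing under CLSI M7-A7 and M100-S18 guidelines.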

Klebsiella pneumoniae = experiment: MIC determination, K. pneumoniae; assay type: cell-based; conditions: ciprofloxacin-resistant, ESBL-expressing clinical isolate, * = arithmetic mean of 2-6 MIC determinations, read-out: MIC (ug/mL) K. pneumoniae
In short: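 MIC determined by broth dilution per CLSI M7-A7 and M100-S18 guidelines. Strain: ciprofloxacin-resistant, ESBL-expressing clinical isolate of K. pneumoniae.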

[3] = system: Staphylococcus aureus ATCC 29213; experiment: MIC determination, S. aureus ATCC 29213; assay type: cell-based; conditions: ATCC29213, CLSI quality control reference strain, * = arithmetic mean of 2-6 MIC determinations, read-out: MIC (ug/mL) S. aureus ATCC 29213
In short: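 MIC was measured by dilution susceptibility testing following CLSI guidelines (M7-A7; M100-S18). The test organism is the CLSI quality-control reference strain.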

Serratia marcescens = experiment: MIC determination, S. marcescens; assay type: cell-based; conditions: multidrug-resistant clinical isolate, * = arithmetic mean of 2-6 MIC determinations, read-out: MIC (ug/mL) S. marcescens
Experimental: MIC determinations: The in vitro antibacterial activity of compounds described in the Examples was evaluated by minimum inhibitory concentration (MIC) testing according to Clinical and Laboratory Standards Institute (CLSI, formerly NCCLS) guidelines. See: Clinical and Laboratory Standards Institute. Methods for Dilution Antimicrobial Susceptibility Tests for Bacteria that Grow Aerobically; Approved Standard-Seventh Edition. CLSI document M7-A7 [ISBN 1-56238-587-9]. Clinical and Laboratory Standards Institute, 940 West Valley Road, Suite 1400, Wayne, Pa. 19087-1898 USA, 2006; also Clinical and Laboratory Standards Institute. Performance Standards for Antimicrobial Susceptibility Testing; Eighteenth Informational Supplement. CLSI document M100-S18 [ISBN1-56238-653-0]. Clinical and Laboratory Standards Institute.
The following bacterial strains were used:
Serratia marcescens: Multidrug-resistant clinical isolate.

Structure (SMILES) | IC50 [1] [µM] | MIC (P. aeruginosa PAO280) [µg/mL] | MIC (P. aeruginosa UI-18) [µg/mL] | MIC [2] [µg/mL] | MIC (Enterobacter aerogenes) [µg/mL] | MIC (Escherichia coli EC-1) [µg/mL] | MIC (Klebsiella pneumoniae) [µg/mL] | MIC [3] [µg/mL] | MIC (Serratia marcescens) [µg/mL]
O=C(NO)C1(OCc2ccc(-c3ccccc3)cc2)CCOCC1 [Example 58, 4-(biphenyl-4-ylmethoxy)-N-hydroxytetrahydro-2H-pyran-4-carboxamide] | 0.04 | 4 (≈ 12.2 µM) | > 64 | > 64 | > 64 | > 64 | > 64 | > 64 | > 64
C[C@H](O)[C@](C)(OCc1ccc(-c2ccccc2)cc1)C(=O)NO [Example 2a, (2S,3S)-2-(biphenyl-4-ylmethoxy)-N,3-dihydroxy-2-methylbutanamide] | 0.00299 | 0.5 (≈ 1.59 µM) | 32 (≈ 101 µM) | > 64 | > 64 | > 64 | > 64 | > 64 | > 64
CC(C)[C@H](O)[C@](C)(OCc1ccc(-c2ccccc2)cc1)C(=O)NO [Example 3, (2S,3S)-2-(biphenyl-4-ylmethoxy)-N,3-dihydroxy-2,4-dimethylpentanamide] | 0.0716 | 32 (≈ 93.2 µM) | > 64 | > 64 | > 64 | > 64 | > 64 | > 64 | > 64
O=C(NO)C(CO)(CO)OCc1ccc(-c2ccccc2)cc1 [Example 91, 2-(biphenyl-4-ylmethoxy)-N,3-dihydroxy-2-(hydroxymethyl)propanamide] | 0.0108 | 1.25 (≈ 3.94 µM) | 43 (≈ 136 µM) | > 64 | > 64 | > 64 | > 64 | > 64 | > 64
Cn1ccnc1[C@H](O)[C@](C)(OCc1ccc(-c2ccccc2)cc1)C(=O)NO [Example 10, (2S,3S)-2-(biphenyl-4-ylmethoxy)-N,3-dihydroxy-2-methyl-3-(1-methyl-1H-imidazol-2-yl)propanamide] | 0.00246 | 0.19 (≈ 0.498 µM) | 33 (≈ 86.5 µM) | 64 (≈ 168 µM) | > 64 | 48 (≈ 126 µM) | 48 (≈ 126 µM) | 48 (≈ 126 µM) | 64 (≈ 168 µM)
O=C(NO)C(CO)(OCc1ccc(-c2ccccc2)cc1)C(F)(F)F (stereo not drawn) [Example 50, 2-(biphenyl-4-ylmethoxy)-3,3,3-trifluoro-N-hydroxy-2-(hydroxymethyl)propanamide] | 0.0147 | 1 (≈ 2.81 µM) | 48 (≈ 135 µM) | > 64 | > 64 | > 64 | > 64 | > 64 | > 64
CCCC[C@H](O)[C@](C)(OCc1ccc(-c2ccccc2)cc1)C(=O)NO [Example 5, (2S,3S)-2-(biphenyl-4-ylmethoxy)-N,3-dihydroxy-2-methylheptanamide] | 0.0878 | 16 (≈ 44.8 µM) | > 64 | > 64 | > 64 | > 64 | > 64 | 64 (≈ 179 µM) | > 64
O=C(NO)C(CO)(CCO)OCc1ccc(-c2ccccc2)cc1 (stereo not drawn) [Example 92] | 0.0134 | 2 (≈ 6.04 µM) | > 64 | > 64 | > 64 | > 64 | > 64 | > 64 | > 64
CC[C@H](O)[C@](C)(OCc1ccc(-c2ccccc2)cc1)C(=O)NO [Example 1, (2S,3S)-2-(biphenyl-4-ylmethoxy)-N,3-dihydroxy-2-methylpentanamide] | 0.00844 | 3 (≈ 9.11 µM) | > 64 | > 64 | > 64 | > 64 | > 64 | > 64 | > 64
C[C@@](OCc1ccc(-c2ccccc2)cc1)(C(=O)NO)[C@@H](O)c1ccccn1 [Example 17, (2S,3S)-2-(biphenyl-4-ylmethoxy)-N,3-dihydroxy-2-methyl-3-pyridin-2-ylpropanamide] | 0.0015 | 0.25 (≈ 0.661 µM) | 8 (≈ 21.1 µM) | 32 (≈ 84.6 µM) | > 64 | 16 (≈ 42.3 µM) | > 64 | > 64 | –
C[C@@](OCc1ccc(-c2ccc(C(F)(F)F)cn2)cc1)(C(=O)NO)[C@@H](O)c1cc(CO)on1 [Example 41, (2S,3S)-N,3-dihydroxy-3-[5-(hydroxymethyl)isoxazol-3-yl]-2-methyl-2-({4-[5-(trifluoromethyl)pyridin-2-yl]benzyl}oxy)propanamide] | 0.00116 | 0.25 (≈ 0.535 µM) | 32 (≈ 68.5 µM) | > 64 | > 64 | > 64 | > 64 | > 64 | –
Cc1cc([C@H](O)[C@](C)(OCc2ccc(-c3ccccc3)cc2)C(=O)NO)no1 [Example 23, (2S,3S)-2-(biphenyl-4-ylmethoxy)-N,3-dihydroxy-2-methyl-3-(5-methylisoxazol-3-yl)propanamide] | 0.000376 | 0.015 (≈ 0.0392 µM) | 1.75 (≈ 4.58 µM) | 4 (≈ 10.5 µM) | 27 (≈ 70.6 µM) | 4 (≈ 10.5 µM) | 8 (≈ 20.9 µM) | > 64 | –
